The values that follow come from article PMC6934184, “Selective DNA-PKcs inhibition extends the therapeutic index of localized radiotherapy and chemotherapy” (The Journal of Clinical Investigation, 2019).

This assay addresses T1, EIF2AK2 (PKR) (Homo sapiens, UniProt P19525).
T1 construct: purchased Thermo Fisher Scientific (Life Technologies) SelectScreen
Briefly: SelectScreen LanthaScreen. The class given is binding. Conditions: 1 µM. Summed up:
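SelectScreen broad panel; activity (Z'LYTE, Adapta) plus binding formats. ATP: Km app for CSF1R Z'LYTE; 10 for CAMK1 Adapta. Readout = % per kinase.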

Each structure is given as a SMILES string.

T1 sequence (P19525 whole entry): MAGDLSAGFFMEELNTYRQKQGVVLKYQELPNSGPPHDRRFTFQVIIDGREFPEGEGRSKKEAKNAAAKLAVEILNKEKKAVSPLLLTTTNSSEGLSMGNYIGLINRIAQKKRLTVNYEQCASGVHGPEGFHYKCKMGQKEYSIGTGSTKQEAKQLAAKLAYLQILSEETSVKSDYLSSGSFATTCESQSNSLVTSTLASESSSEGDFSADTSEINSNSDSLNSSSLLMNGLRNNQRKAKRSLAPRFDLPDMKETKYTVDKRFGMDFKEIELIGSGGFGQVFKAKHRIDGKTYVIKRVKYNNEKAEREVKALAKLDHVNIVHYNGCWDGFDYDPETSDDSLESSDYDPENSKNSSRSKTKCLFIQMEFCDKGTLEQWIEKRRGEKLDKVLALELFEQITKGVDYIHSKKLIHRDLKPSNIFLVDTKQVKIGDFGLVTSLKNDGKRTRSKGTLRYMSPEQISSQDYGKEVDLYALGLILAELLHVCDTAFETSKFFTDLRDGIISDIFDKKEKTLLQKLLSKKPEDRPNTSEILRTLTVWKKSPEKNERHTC

Consider `CN(C(=O)CN1CCOCC1)c1ccc2sc3c(-c4cccc5c(=O)cc(N6CC7CCC(C6)O7)oc45)cccc3c2c1` [NU5455], for which the “% displacement” value is 13.3%.
